This note sets out measurements from US20230146455A1, “TREATMENT OF INFLAMMATORY DISEASES WITH PEPTIDES AND PHARMACEUTICAL COMPOSITIONS” (Yuyu Pharma, Inc., priority 2020, published 2023).

Values joined by “and” are separate entries in the source; they are usually repeats but may differ in a detail not shown here. Equal values may be shown once. Where a SMILES comes first, the peptide text is derived from it. [ ]: non-standard residue; d: D form. Hyp = O=C(O)[C@@H]1C[C@@H](O)CN1

This assay deals with IL-2. The assay can be described thus: Example 9 Luminex, LPS hPBMCs: IL-2. The format is cell-based, human. How it is done: Treatment Human PBMCs were pretreated with YY-101, YDE-011 and YDE-043 or reference compound; Xiidra® at various concentration (ranging from 1 nM to 100 uM) for 2 h before stimulation. An equal volume of 0.5% DMSO was used as a vehicle control. Then, the cells were treated with LPS at 5 ug/ml. The supernatants from treated cells were harvested at 24 h and placed in a 96 well for Luminex cytokine & chemokine profiling using a Luminex 200 multiplex assay (Luminex; R&D system, USA).
The main study arm with triplicate wells per group in a 24-well plate: • 1. Blank • 2. PBMC: 0.5% DMSO • 3. PBMC+LPS (5 ug/ml) • 4. PBMC+YY-101 100 uM • 5. PBMC+YY-101 10 uM • 6. PBMC+YY-101 1 uM • 7. PBMC+YY-101 0.1 uM • 8. PBMC+YY-101 0.01 uM • 9. PBMC+LPS (5 ug/ml)+Xiidra®100 uM • 10. PBMC+LPS (5 ug/ml)+Xiidra® 10 uM • 11. PBMC+LPS (5 ug/ml)+Xiidra® 1 uM • 12. PBMC+LPS (5 ug/ml)+Xiidra®0.1 uM • 13. PBMC+LPS (5 ug/ml)+Xiidra®0.01 uM • 14. PBMC+LPS (5 ug/ml)+Xiidra®0.001 uM • 15. PBMC+LPS (5 ug/ml)+YY-101 100 uM • 16. PBMC+LPS (5 ug/ml)+YY-101 10 uM • 17. PBMC+LPS (5 ug/ml)+YY-101 1 uM • 18. PBMC+LPS (5 ug/ml)+YY-101 0.1 uM • 19. PBMC+LPS (5 ug/ml)+YY-101 0.01 uM • 20. PBMC+LPS (5 ug/ml)+YY-101 0.001 uM • 21. PBMC+LPS (5 ug/ml)+YDE-011 100 uM • 22. PBMC+LPS (5 ug/ml)+YDE-011 10 uM • 23. PBMC+LPS (5 ug/ml)+YDE-011 1 uM • 24. PBMC+LPS (5 ug/ml)+YDE-011 0.1 uM • 25. PBMC+LPS (5 ug/ml)+YDE-011 0.01 uM • 26. PBMC+LPS (5 ug/ml)+YDE-011 0.001 uM • 27. PBMC+LPS (5 ug/ml)+YDE-043 100 uM • 28. PBMC+LPS (5 ug/ml)+YDE-043 10 uM • 29. PBMC+LPS (5 ug/ml)+YDE-043 1 uM • 30. PBMC+LPS (5 ug/ml)+YDE-043 0.1 uM • 31. PBMC+LPS (5 ug/ml)+YDE-043 0.01 uM • 32. PBMC+LPS (5 ug/ml)+YDE-043 0.001 uM
Multiplex assay was used to measure 30 cytokines and chemokines. The 1:2, 1:10 and 1:200 diluted cell supernatant and serial dilution of the standard were dispensed into a 96 well plate at 50 ul/well. Then, the pre-mixed cocktail of antibody-coated magnetic beads was dispensed at 50 ul/well and incubated at room temperature for 2 h in a horizontal orbital microplate shaker at 800±500 rpm. The beads were washed using a magnetic device to prevent loss. The biotin-antibody was dispensed in 50 ul of each well and incubated at room temperature for 1 h in a shaker at 800±500 rpm. After washing, streptavidin-PE was added at 50 ul/well and incubated at room temperature for 30 min in a shaker under the same conditions. Finally, after washing, wash buffer (100 ul/well) was added to the plate and incubated in a shaker for 2 min. The Luminex™ 200 setting were set according to the manufacturer's protocol. The data was calculated with a standard five-parameter logistic nonlinear regression analysis of the data (xPonent software 4.2, USA). The levels of cytokine/chemokine are normalized to the live cell counts (1×10^5 cells/mL) and presented as concentrations per mL (pg/mL or ng/mL).

Where [1] appears, read: PBMC + LPS(5 ug/ml) + test article 0.001 uM, Mean.
The mark [2] stands for this setting: PBMC + LPS(5 ug/ml) + test article 0.001 uM, single replicates.
Where [3] appears, read: PBMC + LPS(5 ug/ml) + test article 0.01 uM, Mean.
The mark [4] stands for this setting: PBMC + LPS(5 ug/ml) + test article 0.01 uM, single replicates.
[5] abbreviates: PBMC + LPS(5 ug/ml) + test article 0.1 uM, Mean.
[6] abbreviates: PBMC + LPS(5 ug/ml) + test article 0.1 uM, single replicates.
The mark [7] stands for this setting: PBMC + LPS(5 ug/ml) + test article 1 uM, Mean.
Where [8] appears, read: PBMC + LPS(5 ug/ml) + test article 1 uM, single replicates.
Setting [9] is: PBMC + LPS(5 ug/ml) + test article 10 uM, Mean.
Where [10] appears, read: PBMC + LPS(5 ug/ml) + test article 10 uM, single replicates.
The mark [11] stands for this setting: PBMC + LPS(5 ug/ml) + test article 100 uM, Mean.
The mark [12] stands for this setting: PBMC + LPS(5 ug/ml) + test article 100 uM, single replicates.

With `CC(C)C[C@H](NC(=O)CNC(=O)[C@H](CC(C)C)NC(=O)[C@H](CCC(N)=O)NC(=O)CNC(=O)[C@@H]1C[C@@H](O)CN1)C(=O)N[C@@H](C)C(=O)NCC(=O)N1CCC[C@H]1C(=O)N[C@@H](CCCCN)C(=O)O` [YDE-011] (H-[Hyp]GQLGLAGPK-OH), the IL-2 conc/live cell is 0.0 pg/10^5 under setting [1]; 0.0 pg/10^5 under setting [2]; 0.0 pg/10^5 under setting [3]; 0.0 pg/10^5 under setting [4]; 0.0 pg/10^5 under setting [5]; 0.0 pg/10^5 under setting [6]. For the same molecule, the IL-2 conc/live cell by setting is: under setting [7], 0.0 pg/10^5; under setting [8], 0.0 pg/10^5; under setting [9], 0.0 pg/10^5; under setting [10], 0.0 pg/10^5; under setting [11], 0.0 pg/10^5; under setting [12], 0.0 pg/10^5. Moreover, the “MFI, Bead name: IL-2” value under setting [1] is reported as 4.0; the “MFI, Bead name: IL-2” value under setting [2] was found to be 4.0; the “MFI, Bead name: IL-2” value under setting [3] is 5.0; the “MFI, Bead name: IL-2” value under setting [4] was 5.0; the “MFI, Bead name: IL-2” value under setting [5] came to 6.7; the “MFI, Bead name: IL-2” value under setting [6] was 7.0 and 8.0 and 5.0. In addition, the “MFI, Bead name: IL-2” value is 5.3 under setting [7]; 6.0 (2×) and 4.0 under setting [8]; 5.3 under setting [9]; 6.0 and 5.0 (2×) under setting [10]; 4.0 under setting [11]; 4.0 and 2.0 and 6.0 under setting [12].
In the case of `CC(C)C[C@H](NC(=O)[C@H](CCC(N)=O)NC(=O)CNC(=O)[C@@H]1C[C@@H](O)CN1)C(=O)NCC(=O)O` [YDE-043] (H-[Hyp]GQLG-OH; N-terminus and C-terminus assumed), the IL-2 conc/live cell by setting is: under setting [1], 0.0 pg/10^5; under setting [2], 0.0 pg/10^5; under setting [3], 0.0 pg/10^5; under setting [4], 0.0 pg/10^5; under setting [5], 0.0 pg/10^5; under setting [6], 0.0 pg/10^5. The IL-2 conc/live cell was 0.0 pg/10^5 under setting [7]; 0.0 pg/10^5 under setting [8]; 0.0 pg/10^5 under setting [9]; 0.0 pg/10^5 under setting [10]; 0.0 pg/10^5 under setting [11]; 0.0 pg/10^5 under setting [12]. Also, the “MFI, Bead name: IL-2” value under setting [1] worked out at 6.3; the “MFI, Bead name: IL-2” value under setting [2] was 3.0 and 8.0 (2×); the “MFI, Bead name: IL-2” value under setting [3] worked out at 4.7; the “MFI, Bead name: IL-2” value under setting [4] is 6.0 and 4.0 (2×); the “MFI, Bead name: IL-2” value under setting [5] was found to be 5.7; the “MFI, Bead name: IL-2” value under setting [6] was 6.0 and 3.0 and 8.0. Moreover, the “MFI, Bead name: IL-2” value runs as follows: under setting [7], 3.0; under setting [8], 3.0 and 2.0 and 4.0; under setting [9], 3.3; under setting [10], 3.0 and 2.0 and 5.0; under setting [11], 2.0; under setting [12], 2.0.
